From patent US20230029194A1, “MACROCYLIC SULFONYL DERIVATIVES MCL-1 INHIBITORS” (Janssen Pharmaceutica NV, priority 2019, published 2023)
Where two headings read alike, the source gives them in different places.

Columns and labels:
MOLP8 cells = experiment: MOLP8 CellEvent Caspase-3/7 Green live-cell IncuCyte apoptosis assay; type: cell-based, human; conditions: averaged, number of independent runs in brackets
Method: (§1) MCL-1 is a regulator of apoptosis and is highly over-expressed in tumor cells that escape cell death. The assay evaluates the cellular potency of small-molecule compounds targeting regulators of the apoptosis pathway, primarily MCL-1, Bfl-1, Bcl-2, and other proteins of the Bcl-2 family. Protein-protein inhibitors disrupting the interaction of anti-apoptotic regulators with BH3-domain proteins initiate apoptosis.
Activation of the apoptotic pathway was measured using the CellEvent™ Caspase-3/7 Green ReadyProbes™ Reagent (Thermo Fisher C10423, C10723). This assay produces a green fluorescent stain in cells that enter the apoptosis pathway. CellEvent® Caspase-3/7 Green reagent is a four amino acid peptide (DEVD) conjugated to a nucleic acid-binding dye that is non-fluorescent when not bound to DNA. The CellEvent® Caspase-3/7 Green reagent is intrinsically non-fluorescent, as the DEVD peptide inhibits binding of the dye to DNA. Upon activation of caspase-3/7 in apoptotic cells, the DEVD peptide is cleaved and the free dye can bind DNA, generating a bright green fluorescence. The activation of Caspase-3 and Caspase-7 is downstream of inhibition of MCL-1 or other apoptosis inhibiting proteins in cell lines that are dependent on them.
The live-cell readout on the IncuCyte permits tracking over time of the Caspase activation. […] The IncuCyte readout also allows one to normalize for cell number, as the suspension cells are hard to distribute evenly.
Signals were measured every 2 h for a duration of 22 h. The ratio of the Caspase mask to the Confluence mask, per image, as raw data, was calculated and the kinetic trace for every well was exported to Genedata Screener for analysis.
In Genedata Screener values for 6 h, 12 h, and 22 h from the kinetic traces were extracted. The values were normalized against negative controls (untreated cells). A standard dose-response analysis was performed on the normalized data.
The following data was reported at each of the following three aforementioned time points: (a) The dose-response curve, (b) The qAC50 and qAC50 Mode, and (c) Max Activity.
Cells were maintained in culture medium containing 10% Heat Inactivated (HI) FBS, 2 mM L-Glutamine and 50 μg/mL Gentamycin phenol red free RPMI-1640. Cells were split at 0.4 million/mL twice a week.
On Day 1, plates containing individual wells with test compounds at 10 mM concentration, 150 nL per well. The final concentrations range from […] to 10 pM compound (and no compound control) and compounds were thawed at room temperature for 1 hour. 25 μl of prewarmed medium was added into each well by multidrop (column 1, 3-22, 24), followed by addition of DMSO control (0.6% DMSO) in column 2. The plate was sealed using Breathe-Easy®) sealing membrane and shaken for 30 min at room temperature to dissolve the test compound(s) in medium. The plate was then kept in the incubator for 1 hour at 37° C., 5% CO2.
MOLP8 cells in medium at 40000/25 μl (20000/50 μl final in assay) were prepared with CellEvent™ Caspase-3/7 Green Detection Reagent at 4 μM (2 μM final in assay). Once prepared, the cells were added to the test compound plate in an amount of 20000 and the plate was immediately placed in the IncuCyte and imaging started using following settings: 10X objective, 2 s exposure time in green channel, interval of 2 h, acquisition stopped after 22 h.
For analysis in IncuCyte, a Basic Analysis protocol was defined to calculate the “confluence” and “caspase” areas from the “Phase” and “green” images, respectively, as follows: (a) Confluence: Segmentation Adjustment 1, Hole Fill 0, Adjust Size −2, No filters (b) Caspase: Top-Hat segmentation, Radius 10, Threshold 0.3 GCU, Edge Split On with sensitivity 0, Hole Fill 0, Adjust Size 1, and filter on a minimum Area of 20 μm. The analyzer is trained on a sufficient number of positive and negative control wells, as well as compound treated wells, verifying that the “confluence” layer detects both live and dead (condensed) cells. […]

[1] = target: Myeloid Cell Leukemia 1 (Mcl-1) (Homo sapiens, UniProt Q07820); experiment: Terbium labeled Mcl-1 HTRF binding assay utilizing the Cy5-labeled BIM BH3 peptide
Method: Terbium labeled Myeloid Cell Leukemia 1(Mcl-1) homogeneous time-resolved fluorescence (HTRF) binding assay utilizing the BIM BH3 peptide (H2N—(C/Cy5Mal) WIAQELRRIGDEFN-OH) as the binding partner for Mcl 1.
This assay evaluated inhibition of the BH3 domain: Mcl-1 interaction by measuring the displacement of Cy5-labeled BIM BH3 peptide (H2N—(C/Cy5Mal) WIAQELRRIGDEFN-OH) in the HTRF assay format.
The following assay and stock buffers were prepared for use in the assay: (a) Stock buffer: 10 mM Tris—HCl, pH=7.5+150 mM NaCl, filtered, sterilized, and stored at 4° C.; and (b) 1X assay buffer, where the following ingredients were added fresh to stock buffer: 2 mM dithiothreitol (DTT), 0.0025% Tween-20, 0.1 mg/mL bovine serum albumin (BSA). The 1X Tb—Mcl-1+Cy5 Bim peptide solution was prepared by diluting the protein stock solution using the 1X assay buffer (b) to 25 pM Tb—Mcl-1 and 8 nM Cy5 Bim peptide.
Using the Acoustic ECHO, 100 nL of 100x test compound(s) were dispensed into individual wells of a white 384-well Perkin Elmer Proxiplate, for a final compound concentration of 1x and final DMSO concentration of 1%. Inhibitor control and neutral control (NC, 100 nL of 100% DMSO) were stamped into columns 23 and 24 of assay plate, respectively. Into each well of the plate was then dispensed 10 μL of the 1X Tb—Mcl-1+Cy5 Bim peptide solution. The plate was centrifuged with a cover plate at 1000 rpm for 1 minute, then incubated for 60 minutes at room temperature with plates covered. The TR-FRET signal was read on an BMG PHERAStar FSX MicroPlate Reader at room temperature using the HTRF optic module (HTRF: excitation: 337 nm, light source: laser, emission A: 665 nm, emission B: 620 nm, integration start: 60 μs, integration time: 400 μs).
The BMG PHERAStar FSX MicroPlate Reader was used to measure fluorescence intensity at two emission wavelengths—665nm and 620 nm—and report relative fluorescence units (RFU) for both emissions, as well as a ratio of the emissions (665 nm/620 nm)*10,000. The RFU values were normalized to percent inhibition as follows:
% inhibition=(((NC−IC)−(compound−IC))/(NC−IC))*100
where IC (inhibitor control, low signal)=mean signal of 1X Tb—MCl-1+Cy5 Bim peptide+inhibitor control or 100% inhibition of Mcl-1; NC (neutral control, high signal)=mean signal 1X Tb—MCl-1+Cy5 Bim peptide with DMSO only or 0% inhibition An 11-point dose response curve was generated to determine IC50 values (using GenData) based on the following equation:
Y=Bottom+(Top−Bottom)/(1+10((logIC50−X)*HillSlope))
where Y=% inhibition in the presence of X inhibitor concentration; Top=100% inhibition derived from the IC (mean signal of Mcl-1+inhibitor control); Bottom=0% inhibition derived from the NC (mean signal of Mcl-1+DMSO); Hillslope=Hill coefficient; and IC50=concentration of compound with 50% inhibition in relation to top/neutral control (NC).
In this assay [L]=8 nM and Kd=10 nM

[2] = system: MOLP-8 human multiple myeloma cell line; experiment: MOLP8 Caspase-Glo 3/7 luminescent assay; type: cell-based; conditions: MOLP8 cells, 2 hours incubation, 10% FBS assay media, 30 μM highest conc.; averaged over all runs on all batches
Text: as §1
The Caspase-Glo® 3/7 Assay is a luminescent assay that measures caspase-3 and -7 activities in purified enzyme preparations or cultures of adherent or suspension cells. The assay provides a proluminescent caspase-3/7 substrate, which contains the tetrapeptide sequence DEVD. This substrate is cleaved to release aminoluciferin, a substrate of luciferase used in the production of light. Addition of the single Caspase-Glo® 3/7 Reagent in an “add-mix-measure” format results in cell lysis, followed by caspase cleavage of the substrate and generation of a “glow-type” luminescent signal. This assay uses the MOLP-8 human multiple myeloma cell line, which is sensitive to MCL-1 inhibition.
Cell cultures were maintained between 0.2 and 2.0×10^6 cells/mL. The cells were harvested by collection in 50 mL conical tubes. The cells were then pelleted at 500 g for 5 mins before removing supernatant and resuspension in fresh pre-warmed culture medium. The cells were counted and diluted as needed.
The assay reagent was prepared by transferring the buffer solution to the substrate vial and mixing. The solution may be stored for up to 1 week at 4° C. with negligible loss of signal.
Compounds were delivered in assay-ready plates (Proxiplate) and stored at −20° C. Assays always include 1 reference compound plate containing reference compounds. The plates were spotted with 40 nL of compounds (0.5% DMSO final in cells; serial dilution; 30 μM highest conc. 1/3 dilution, 10 doses, duplicates). […] The plates were then sealed and measured after 30 minutes.
The activity of a test compound was calculated as percent change in apoptosis induction as follows: […]

[3] = 6 h, read-out: MOLP8 Caspase 3/7 AC50 at 6 h
[4] = 12 h, read-out: MOLP8 Caspase 3/7 AC50 at 12 h
[5] = 22 h, read-out: MOLP8 Caspase 3/7 AC50 at 22 h
[6] = Ki=IC50/(1+[L]/Kd), [L]=8 nM, Kd=10 nM, first table (before recalibration of the equipment)
[7] = values obtained after recalibration of the equipment, averaged over several runs

Sequence of Myeloid Cell Leukemia 1 (Mcl-1) (Q07820 whole entry): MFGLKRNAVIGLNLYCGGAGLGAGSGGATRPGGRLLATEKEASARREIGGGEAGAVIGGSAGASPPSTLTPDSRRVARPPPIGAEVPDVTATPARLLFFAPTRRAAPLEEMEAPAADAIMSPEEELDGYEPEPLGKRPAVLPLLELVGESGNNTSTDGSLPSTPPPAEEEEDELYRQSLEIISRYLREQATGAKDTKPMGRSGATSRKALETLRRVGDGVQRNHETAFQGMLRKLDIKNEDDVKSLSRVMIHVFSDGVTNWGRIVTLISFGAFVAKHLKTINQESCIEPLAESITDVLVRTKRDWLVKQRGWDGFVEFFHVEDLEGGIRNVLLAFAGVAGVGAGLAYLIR

Compound	AC50 (MOLP8 cells; [3]) [nM]	AC50 (MOLP8 cells; [4]) [nM]	AC50 (MOLP8 cells; [5]) [nM]	Ki [1, 6] [nM]	Ki [1, 7] [nM]	AC50 [2] [nM]
Cc1c2c(nn1C)CN(C)Cc1cc(n(C)n1)CS(=O)(=O)c1cc(c3ccccc3c1)OCCCc1c(C(=O)O)n(C)c3c-2c(Cl)ccc13 (single isomer, unassigned) [Compound 1]	4470	5580	5750	0.62	0.56	3900
Cc1c2c(nn1C)CN(C)Cc1cc(n(C)n1)CS(=O)(=O)c1cc(c3ccccc3c1)OCCCc1c(C(=O)O)n(C)c3c-2c(Cl)ccc13 (single isomer, unassigned) [Compound 2]	> 30200	> 30200	> 30200	86.3	153	–
Cc1c2c(nn1C)CS(=O)(=O)Cc1cc(n(C)n1)CSc1cc(c3ccccc3c1)OCCCc1c(C(=O)O)n(C)c3c-2c(Cl)ccc13 (single isomer, unassigned) [Compound 3]	680	620	540	–	0.04	400
Cc1c2c(nn1C)CS(=O)(=O)Cc1cc(n(C)n1)CSc1cc(c3ccccc3c1)OCCCc1c(C(=O)O)n(C)c3c-2c(Cl)ccc13 (single isomer, unassigned) [Compound 4]	18600	20200	21600	1.7	3	14100
